Measurements from patent US7250394B2, “Treatment of glial tumors with glutamate antagonists” (priority 2001, dated 2007).

Legend:
[1] = tested on: cultured cortical neurons; experiment: Calcium measurement (fluo-3) in cortical neurons after conditioned medium from C6Glu+ cells; assay type: cell-based, rat; conditions: 10 μM
Experimental: (§1) Ten-day-old cortical neurons were loaded with the calcium indicator, fluo-3 AM (5 μM, 1 h), and the fluorescence signal was detected by confocal microscopy (MRC1000, BioRad, Richmond, Calif.) as described (Lin et al., “Ga-Junction-Mediated Propagation and Amplification of Cell Injury,” Nature Neurosci., 1:494–500 (1998); Zhang et al., “Tamoxifen-Induced Enhancement of Calcium Signaling in Glioma and MCF-7 Breast Cancer Cells,” Cancer Res., 60:5395–5400 (2000), which are hereby incorporated in their entirety). 100 μl conditioned medium from the C6 clones was added to the culture (initial media volume was 300 μl). Proliferation of the C6 subclones was determined by cell counting or by the Alamar blue assay (Biosource, Camarillo, Calif.) and cellular invasiveness evaluated using Matrigel-coated transwell inserts as described (Zhang et al., “Direct Gap Junction Communication Between Malignant Glioma Cells and Astrocytes,” Cancer Res., 59:1994–2003 (1999), which is hereby incorporated in its entirety).
After transfer of conditioned medium from C6Glu^+ cells to cultured cortical neurons that had been first loaded with the calcium indicator fluo-3, there was a rapid increase in the relative emission of fluo-3, indicating increased cytosolic calcium levels (FIG. 1B). […]

cortical neurons = experiment: Coculture of cortical neurons with C6Glu+ glioma aggregates, neuronal viability; assay type: cell-based, rat; conditions: pretreatment; 24 h coculture (10 μM per FIG. 1C)
Experimental: Glioma cell aggregates were produced by plating 100,000 C6Glu^+ or C6Glu^−cells in plates with non-adhesive substrate (ultra low cluster 3473; Costar, Cambridge, Mass.). Twenty-four hours later, the glioma aggregates were loaded with calcein AM (green, 2 μM, excitation 488 nm) and transferred to neuronal cultures. Cortical neuronal cultures were preloaded with the cell tracker Sytox 62 (white, 0.1 μM, excitation 647 nm).
To study the direct cellular interactions, the glioma clones were cocultured with cortical neurons (Id.). Twenty-four hours after adding aggregates of C6Glu^− cells to established neuronal cultures, 86±2% of the neurons remained viable (FIGS. 1C–D). In comparison, only 14±1% of neurons survived in sister cultures after addition of C6Glu^+ cell aggregates (FIGS. 1C–D).

[2] = tested on: TUNEL^+ neurons surrounding C6Glu^+ cell tumors; experiment: TUNEL staining of degenerating neurons surrounding C6Glu+ tumors; assay type: in vivo, rat; conditions: five-day-old tumors; P<0.001 one-way ANOVA
Description: Polyclonal antibodies against glutamate transporters were supplied by and used as described by Rothstein et al., “Localization of Neuronal and Glial Glutamate Transporters,” Neuron, 13:713–725 (1994), which is hereby incorporated in its entirety. Neuronal death was visualized with the TUNEL technique (Oncor, Gaithersburg), and counterstained with hematoxilin and eosin (H&E) (Lin et al., “Ga-Junction-Mediated Propagation and Amplification of Cell Injury,” Nature Neurosci., 1, 494–500 (1998), which is hereby incorporated in its entirety). […] TUNEL^+ neurons within a distance of 200 μm from the tumor border were counted by a blinded observer. […]
To test the possibility that elevation of extracellular glutamate triggers excitotoxic neuronal death in normal brain tissue invaded by C6Glu^+ tumor cells, TUNEL (terminal deoxynucleotidyl-transferase-mediated dUTP-blotin nick end-labeling) staining was used to identify degenerating neurons (Lin et al., “Ga-Junction-Mediated Propagation and Amplification of Cell Injury,” Nature Neurosci., 1, 494–500 (1998), which is hereby incorporated in its entirety). Five-day-old tumors were evaluated to minimize indirect injury resulting from the very large tumors in animals with C6Glu^+ cell implants. […]

C6Glu^+ cell implants = experiment: C6Glu+ glioma implantation in striata of Wistar rats, tumor size 10 days after implantation; assay type: in vivo, rat
Experimental: Rats (male Wistar, 250–270 g) anesthetized with pentobarbital (50 mg/kg) were placed in a stereotactic frame and 1×10^4 C6 cells were injected at a depth of 6 mm in the right striata with a Hamilton syringe. Injection coordinates with regard to bregma were 0.5 mm posterior and 3.0 mm lateral. Fischer rats (170–200 g) were injected with 1×10^4 RG2 cells. In some experiments, the glioma cells were prelabeled with the cell tracker, CMFDA (2 μM, Molecular Probes, Eugene, Oreg.) (Lin et al., “Ga-Junction-Mediated Propagation and Amplification of Cell Injury,” Nature Neurosci., 1:494–500 (1998), which is hereby incorporated in its entirety). Ten days after implantation, the anesthetized rats were perfused with 4% paraformaldehyde in phosphate buffer. After post-fixation for 24 hours, the brains were sectioned into 50–500-μm slices by a vibratome (Kang et al., “AstrocyteMediated Potentiation of Inhibitory Synaptic Transmission,” Nature Neurosci., 1:682–692 (1998), which is hereby incorporated in its entirety). The slices were imaged using a Sony digital camera (DSC-S50) and tumor volume calculated using NIH Image software.
Based upon the above observations, it was investigated whether excitotoxic neuronal death accelerates tumor expansion. […]

C6 cells [3] = experiment: Proliferation of C6 glioma cells in culture; assay type: cell-based, rat
Experimental: as §1

RG2Glu^+ cell implants = experiment: RG2Glu+ glioma implantation in Fischer rats, tumor volume; assay type: in vivo, rat; conditions: 25 mg/kg twice daily i.p., 10 d
Experimental: Rats (male Wistar, 250–270 g) anesthetized with pentobarbital (50 mg/kg) were placed in a stereotactic frame and 1×10^4 C6 cells were injected at a depth of 6 mm in the right striata with a Hamilton syringe. Injection coordinates with regard to bregma were 0.5 mm posterior and 3.0 mm lateral. Fischer rats (170–200 g) were injected with 1×10^4 RG2 cells. In some experiments, the glioma cells were prelabeled with the cell tracker, CMFDA (2 μM, Molecular Probes, Eugene, Oreg.) (Lin et al., “Ga-Junction-Mediated Propagation and Amplification of Cell Injury,” Nature Neurosci., 1:494–500 (1998), which is hereby incorporated in its entirety). Ten days after implantation, the anesthetized rats were perfused with 4% paraformaldehyde in phosphate buffer. After post-fixation for 24 hours, the brains were sectioned into 50–500-μm slices by a vibratome (Kang et al., “AstrocyteMediated Potentiation of Inhibitory Synaptic Transmission,” Nature Neurosci., 1:682–692 (1998), which is hereby incorporated in its entirety). The slices were imaged using a Sony digital camera (DSC-S50) and tumor volume calculated using NIH Image software. […]

RG2 glioma cells = experiment: Proliferation of RG2 glioma cells in culture; assay type: cell-based, rat
[4] = patients with Parkinson's Disease, dementia, and spasticity; cited from earlier work
[5] = 25 mg/kg i.p.; microdialysis; cited from earlier work
C6 glioma cells = experiment: [3H]glutamate uptake in C6 subclones; assay type: cell-based, rat; conditions: 5 min
Experimental: Glutamate uptake was analyzed by mixing 0.4 μCi/ml L-[^3H]glutamate (specific activity 0.03 Ci/mmol) with 150 μM glutamate in a buffer containing […] NaCl, 1.5 mM K2HPO4, 2 MM MgCl2, 2 mM CaCl2, 10 mM HEPES and 10 mM glucose with pH 7.3 (ref 6). NaCl was replaced by choline chloride for sodium-free conditions. Cells were washed twice, then incubated in the uptake solution with various blockers for 5 min., followed by 3 washes with ice-cold buffer, and then dissolved in 0.3 N NaOH. The activity of [^3H]glutamate was detected with liquid scintillation counter (1209 Rackbeta, LKB Wallac, San Francisco, Calif.). Protein concentration was determined by using the DC protein assay kit from BioRad.

C6 cells [6] = experiment: Glutamate release from C6 subclones (bioluminescence assay); assay type: cell-based, rat
Experimental: Confluent cultures were washed twice and incubated in fresh culture medium. Samples of the supernatant were collected at 1, 3 and 6 hours. […] Glutamate release from freshly prepared brain slices was imaged by preparing 300-μm slices by vibratome 5 days after tumor implantation. The sections were prepared in artificial CSF as described (Kang et al., “Astrocyte-Mediated Potentiation of Inhibitory Synaptic Transmission,”Nature Neurosci., 1:683–692 (1998), which is hereby incorporated in its entirety). After 15 to 30 min. incubation in CSF, the slices were transferred to microscope stage and immersed in the bioluminescence mixture (1 ml) at room temperature. To modify the bioluminescence mixture to be tolerated by live tissue, glycerol was removed using Hank's buffered salt solution as the base. The luminescence was imaged by an intensified CCD camera (Hamamatsu, C2400) attached to a BX-50 microscope with a 50 mm camera lens (Olympus). The relative light production over the tumor versus normal brain tissue was quantified. Light emission higher than a background threshold was superimposed upon a bright-field image of the same section obtained immediately after luminescence recordings. The brain slices were fixed overnight in 4% paraformaldehyde and stained with cresylviolet.

## C[C@]12N[C@H](Cc3ccccc31)c1ccccc12 [MK801, dizocilpine]
[1]
  increase in fluo-3 emission (cytosolic calcium) in cortical neurons: blocked
Cortical neurons
  neuronal loss in coculture with C6Glu+ cell aggregates: attenuated the neuronal loss
[2]
  number of TUNEL+ neurons surrounding C6Glu+ cell tumors: reduced
C6Glu^+ cell implants; 1 mg/kg twice daily i.p., 10 days after injection of C6Glu+ cells, vehicle 106±19 mm^3, P<0.001
  tumor size: 54.9±11 mm^3
C6 cells [3]; 10 or 100 μM per FIG. 4B
  proliferation rate of C6 cells in vitro: did not reduce

## CC12CC3CC(C)(C1)CC(N)(C3)C2 [memantine]
RG2Glu^+ cell implants
  tumor volume smaller than vehicle-treated rats: 26%
C6Glu^+ cell implants; 10 d after implantation, P<0.001 (FIG. 6D)
  growth of C6Glu+ tumors: effectively restricted the growth
C6 cells [3]; 100 μM or higher
  proliferation of cultured C6Glu+ cells: significant reduction
C6 cells [3]; low concentrations
  proliferation of cultured C6Glu+ cells: did not reduce
RG2 glioma cells; 100 μM or higher
  proliferation of RG2 glioma cells: significant reduction
RG2 glioma cells; low concentrations
  proliferation of RG2 glioma cells: did not reduce
[4]
  side effects on prolonged administration: few side effects
[5]
  peak concentrations in the central nervous system: 1 to 2 µM

## O=C(O)[C@@H]1CN[C@@H](C(=O)O)C1 (relative stereo) [trans-PDC, trans-pyrrolidine-2,4-dicarboxylate]
C6 glioma cells; 200 μM
  uptake of [3H]glutamate in C6Glu+ cells: not affected
C6 glioma cells
  [3H]glutamate uptake in C6Glu- cells: significantly reduced
  [3H]glutamate uptake in C6WT cells: significantly reduced
C6 cells [6]; 6-h period
  glutamate release from C6 cells: not affected

## N[C@H](C(=O)O)c1ccc(C(=O)O)cc1 [S-4CPG, (s)-4-carboxyphenylglycine]
C6 cells [6]; 100 μM, any of the three clones
  glutamate release from C6 cells: no effect

## N[C@@H](CSSC[C@H](N)C(=O)O)C(=O)O [cystine]
C6 cells [6]; addition of extracellular cystine, any of the three clones
  glutamate release from C6 cells: no effect
